According to US10653667B2, “Drug for preventing, treating or preventing metastasis of giant cell tumor that occurs in bone or soft parts, chondrosarcoma, or osteosarcoma, local injection for arterial embolization, and artificial bone” (NIPPON CHEMIPHAR CO., LTD, priority 2013, dated 2020):
“Also recorded” adds a separate entry of the source.

How the values were obtained:
H-EMC-SS cells [1] = assay: Caspase 3 staining of chondrosarcoma cell line H-EMC-SS (apoptosis); type: cell-based, human; conditions: zaltoprofen 200 μM, troglitazone 100 μM or pioglitazone 200 μM, compared with control
Experimental: Further, in the same manner as that of Example 1, cells of the chondrosarcoma cell line were subjected to caspase 3 staining, and presence or absence of apoptosis was analyzed (FIGS. 46 and 47).

[2] = test system: GCTB cultured cells (case 1, case 2); assay: Cell proliferation of GCTB cultured cells in the presence or absence of PPARγ siRNA; type: cell-based, human; conditions: 200 μM zaltoprofen or 60 μM troglitazone; 72 hours
H-EMC-SS cells [3] = assay: Proliferation of H-EMC-SS cells cultured beforehand with PPARγ siRNA or control siRNA; type: cell-based, human; conditions: 400 μM zaltoprofen
Experimental: Cells of the human chondrosarcoma cell line, H-EMC-SS, were cultured in the same manner as that of Example 1 until they became sub-confluent, PPARγ siRNA (Dharmacon, catalog number M-003436-02-0005) that selectively suppresses expression of PPARγ, or a control siRNA (Dharmacon, catalog number D-001206-14-05) was added to the cells at a final concentration of 100 nM, and the cells were cultured for 48 hours. Then, 400 μM zaltoprofen was added to the cells, color development was performed with Cell Counting Kit-8 (CCK-8, Dojindo) 24 hours thereafter, absorbance was measured at 450 nm further 3 hours thereafter, and the absorbance observed with the pretreatment with PPARγ siRNA was compared with the absorbance observed with the pretreatment with the control siRNA (FIG. 70).

[4] = test system: PPARγ expression in cells of giant cell tumor of tendon sheath (GCTT); assay: PPARγ immunostaining of GCTT cells; type: cell-based, human; conditions: zaltoprofen 400 μM or troglitazone 200 μM
[5] = test system: PPARγ expression in cells of pigmented villonodular synovitis (PVNS); assay: PPARγ immunostaining of PVNS cells; type: cell-based, human; conditions: zaltoprofen 400 μM or troglitazone 200 μM
OUMS-27 cells = assay: Suppression of proliferation of human chondrosarcoma cell line OUMS-27 (CCK-8); type: cell-based; conditions: at concentrations of 200 μM and 400 μM (50-400 μM tested); 72 hours
[6] = test system: GCTB cultured cells of the case 1; conditions: GCTB derived from a patient; inventors' earlier reports; cited from earlier work
SW1353 cells = assay: Cell invasion of SW1353 cells cultured beforehand with or without GW9662; type: cell-based, human
Experimental: Cells of the human chondrosarcoma cell line, SW1353, were cultured in the same manner as that of Example 1 until they became sub-confluent, then, GW9662, which is an irreversible antagonist of PPARγ, was added to the cells at a final concentration of 1 μM, and the cells were cultured for 60 minutes. Then, zaltoprofen was added to the cells at various concentrations of 200, 300, and 400 μM, cell invasion was measured with Matrigel™ Invasion Chamber (BD Bioscience, catalog number 354480) 24 hours afterward, and the result was compared with the degree of cell invasion observed with addition of only DMSO not dissolving GW9662 (FIG. 78).

[7] = test system: GCTB cultured cells (case 1, case 2; GCT-1, GCT-2); conditions: GCTB derived from a patient; inventors' earlier reports; cited from earlier work
[8] = test system: PPARγ expression in H-EMC-SS cells; assay: PPARγ immunostaining of chondrosarcoma cell line H-EMC-SS; type: cell-based, human; conditions: zaltoprofen 200 μM, troglitazone 100 μM or pioglitazone 200 μM
[9] = test system: GCTB cultured cells of the case 1; assay: Fat cell differentiation of GCTB cultured cells (HCS Lipid TOX Green Neutral Lipid Stain); type: cell-based, human; conditions: zaltoprofen 10, 50, 100 μM; fat cell differentiation-inducing medium 7 to 14 days
Experimental: It has been reported that PPARγ is a transcription factor indispensable for fat cell differentiation. Therefore, the GCTB cultured cells of the aforementioned case 1 were cultured on chamber cover slide glass, and when they reached confluent, zaltoprofen was added to the cells at various concentrations (10, 50, and 100 μM). From 24 hours thereafter, the cells were cultured in a fat cell differentiation-inducing medium (STREMPRO Adipogenesis Differentiation Kit, Invitrogen) for 7 to 14 days, and differentiation into fat cells was analyzed with HCS Lipid TOX Green Neutral Lipid Stain (Invitrogen) (FIGS. 8 and 9).

[10] = test system: GCTB cultured cells (case 1, case 2; GCT-1, GCT-2); assay: Suppression of cell proliferation of GCTB cultured cells (Cell Counting Kit-8, WST assay); type: cell-based, human; conditions: drug at various concentrations, CCK-8 24 hours after addition
Experimental: Tissue Int., 75:71-77), repeatedly subcultured until there were only spindle-shaped cells, which state was gradually attained from the state that there were also multinucleated giant cells observed in an early stage, and then used for the following analysis. […] Zaltoprofen was added as a solution in DMSO (dimethyl sulfoxide) prepared at a concentration 1000 times higher than the final concentration, and the solution was added in a volume of 0.1% of the volume of the medium. The same shall apply to the other drugs used in the following examples. […]

[11] = test system: PPARγ expression in giant cell tumor of bone (GCTB); conditions: patient who had taken zaltoprofen for four weeks at 240 mg per day; inventors' earlier reports; cited from earlier work
[12] = test system: cultured cells of human pigmented villonodular synovitis (PVNS); assay: Tunel assay and caspase 3 staining of PVNS cultured cells; type: cell-based; conditions: zaltoprofen 400 μM or troglitazone 200 μM, compared with control
Experimental: Further, the aforementioned GCTB cultured cells of the case 1 mentioned above were cultured on chamber cover slide glass, and zaltoprofen was added at different concentrations (100, and 200 μM) 24 hours afterward. Then, 8 hours and 24 hours afterward, the cells were fixed with 4% paraformaldehyde, staining with caspase 3 and Tunel assay were performed, and presence or absence of apoptosis was analyzed. In the Tunel assay, fragmented DNAs produced in the process of apoptosis were detected by the TdT-mediated dUTP nick end labeling method (TUNEL). Observation was performed with a fluorescence microscope (BZ-9000) of Keyence, and positive images for each concentration were quantitatively observed (FIGS. 2 to 5).
Further, in the same manner as that of Example 1, the cultured cells of human giant cell tumor of tendon sheath (GCTT) and the cultured cells of human pigmented villonodular synovitis (PVNS) were subjected to staining with caspase 3 and Tunel assay, and presence or absence of apoptosis was analyzed (FIGS. 18 to 25).

H-EMC-SS cells [13] = assay: Suppression of cell proliferation of chondrosarcoma cell line H-EMC-SS (CCK-8); type: cell-based, human; conditions: drug at various concentrations
Text: The H-EMC-SS cells were obtained from the Riken BioResource Center.
The H-EMC-SS cells were obtained from the Riken BioResource Center. As the SW1353 cells, those obtained from ATCC were used.

[14] = test system: PPARγ expression in GCTB cultured cells; conditions: GCTB derived from a patient; inventors' earlier reports; cited from earlier work

In the case of `CC(C(=O)O)c1ccc2c(c1)CC(=O)c1ccccc1S2` (stereo not shown) [zaltoprofen], the “caspase 3-positive ratio” value (H-EMC-SS cells [1]) is reported as “increased”, the “cell proliferation-inhibiting effect in the PPARγ siRNA addition group” value [2] is reported as “significantly suppressed” and the “suppression of proliferation of H-EMC-SS cells” value (H-EMC-SS cells [3]; 24 hours) is reported as “suppressed proliferation”. The “cell proliferation-suppressing action with PPARγ siRNA” value (H-EMC-SS cells [3]; H-EMC-SS, PPARγ siRNA 100 nM 48 hours) was “completely eliminated”, the “expression of PPARγ (PPARγ-positive images)” value [4] was “expression of PPARγ was successfully observed” and the “expression of PPARγ (PPARγ-positive images)” value [5] was “expression of PPARγ was successfully observed”. The “suppression of proliferation of OUMS-27 cells” value (OUMS-27 cells) was “suppressed proliferation”, the “differentiation of the cells into fat cells” value [6] was “induced differentiation of the cells into fat cells” and the “suppression of cell invasion of SW1353 cells” value (SW1353 cells; 400 μM zaltoprofen, 24 hours, without GW9662) was “higher than 80%”. For the same compound, the “suppression of the cell invasion after preincubation with GW9662” value (SW1353 cells; 400 zaltoprofen, GW9662 1 μM) was “substantially eliminated by GW9662”, the “suppression of proliferation of cells of giant cell tumor of bone” value [7] was “suppressed proliferation” and the “expression of PPARγ (PPARγ-positive images)” value [8] was “expression of PPARγ could be confirmed”. For the same compound, the “positive images obtained with HCS Lipid TOX Green Neutral Lipid Stain (differentiation into fat cells)” value [9] was “increased in a zaltoprofen concentration-dependent manner”, the “suppression of cell proliferation (live cell count, absorbance at 450 nm)” value [10] was “concentration-dependent suppression of the cell proliferation; also recorded: suppressed proliferation” and the “cells observed instead of the tumor” value [11] was “fat cell-like cells showing enhanced expression of PPARγ were observed”. The Tunel-positive ratio [12] was “increased”, the “caspase 3-positive ratio” value [12] was “increased” and the “suppression of cell proliferation (absorbance at 450 nm)” value (H-EMC-SS cells [13]) was “cell proliferation was suppressed”. For the same compound, the “expression of PPARγ in the cells of giant cell tumor of bone” value [14] was “promoted expression of PPARγ”.
